Laboratory results from patent publication US20260364003A1, “EYE DROP MICROSUSPENSIONS OF MTOR INHIBITORS” (OCULIS OPERATIONS SARL, priority 2022, published 2026).

Assays:
[1] = cited from earlier work; for chemical stability of derivative: sirolimus derivatives
[2] = Physicochemical characterization of lipid microsuspensions (pH, viscosity, osmolality, particle size); conditions: Table 9, lipid microsuspension containing the drug
Source text: The diameter of a particle, such as a microparticle of mTOR inhibitor in oil and cyclodextrin/lipid complexes, can correspond to the D50 diameter of the particle. Diameter D50 is also known as the median diameter or the medium value of the particle size distribution. Diameter D50 corresponds to the value of the particle diameter at 50% in the cumulative distribution. For example, if D50 is 5 μm, then 50% of the particles in the sample are larger than 5 μm, and 50% smaller than 5 μm. Diameter D50 is usually used to represent the particle size of a group of particles.
The diameter and/or size of a particle can be measured according to any method known to those of ordinary skill in the art. For example, the diameter D50 is measured by laser diffraction particle size analysis. […] In particular, persons of ordinary skill in this field know that the physical properties (e.g. particle size, diameter, average diameter, mean particle size, etc.) are typically evaluated/measured using such limited, typical known techniques.
In specific embodiments, the particle size is measured by laser diffraction particle size analysis according to Pharm. […]
Following is a general procedure for preparation of a non-sterile lipid microsuspension at laboratory scale and for a total batch size of 100 g:
First, appropriate quantity of castor oil containing the dissolved drug-substance (i.e., everolimus) is transferred into a glass container. Second, under stirring with a magnetic stirrer aqueous α-cyclodextrin solution is added to the container. Third, aqueous solution containing EDTA and glycerol is added. Fourth, aqueous solution of Kolliphor HS15 is added. Mixing is continued for about 10 minutes before the stirring bar is removed and the suspension formed mixed with a high-shear homogenizer probe (Ultra-Turrax® T25 homogenizer, IKA-Werke, Germany, with probe IKA-S-25N-18G) operated at 8,000 RPM for about 10 minutes. […] The pH is adjusted to 5.3±0.1 with concentrated hydrochloric acid solution and/or sodium hydroxide solution. Finally, if needed, purified water is added to adjust the final weight of the sample to 100%.
The mixture obtained was homogenized for 10 minutes at 12,000 rpm using Ultra-Turrax® high shear homogenizer with S25N-18G probe at 12,000 rpm for 10 minutes. […] The lipid microsuspension formed was stirred by magnetic stirrer for 30 minutes at room temperature. Finally, the pH was adjusted by addition of hydrochloric acid and/or sodium hydroxide. […]

[3] = Table 9; cited from earlier work
[4] = from the microemulsion; cited from earlier work
[5] = Phase-solubility of everolimus in aqueous cyclodextrin solutions; assay type: physicochemical; conditions: pure aqueous cyclodextrin solutions, 25 °C
Description: Everolimus was added to each cyclodextrin solution in excess, the samples were continuously agitated on a magnetic stirrer for 24 hours.

[6] = room temperature; cited from earlier work

Row | SMILES | stability in microemulsion eye drops ([1]; microemulsion eye drops containing about 25% water) | Osmolality [2] [mOsmol/kg] | Particle size Dx(10) [2] [μm] | Particle size Dx(50) [2] [μm] | Particle size Dx(90) [2] [μm] | Viscosity at 15 rpm [2] [cP] | pH [2] | Drug LogP [3] | topical bioavailability [4] | affinity for everolimus [5] | solubility in water [6] | chemical stability of derivative [1]
1 | CO[C@H]1C[C@@H]2CC[C@@H](C)[C@@](O)(O2)C(=O)C(=O)N2CCCC[C@H]2C(=O)O[C@H]([C@H](C)C[C@@H]2CC[C@@H](O)[C@H](OC)C2)CC(=O)[C@H](C)/C=C(\C)[C@@H](O)[C@@H](OC)C(=O)[C@H](C)C[C@H](C)/C=C/C=C/C=C/1C [Sirolimus, sirolimus] | stable | 309 | 1.5 | 5.7 | 25 | 16.5 | 5.9 | 6.0 | very low |  |  | 
2 | C=CC[C@@H]1/C=C(\C)C[C@H](C)C[C@H](OC)[C@H]2O[C@@](O)(C(=O)C(=O)N3CCCC[C@H]3C(=O)O[C@H](/C(C)=C/[C@@H]3CC[C@@H](O)[C@H](OC)C3)[C@H](C)[C@@H](O)CC1=O)[C@H](C)C[C@@H]2OC [Tacrolimus, tacrolimus] |  | 304 | 1.5 | 5.3 | 22 | 15.7 | 5.0 |  |  |  |  | 
3 | OC[C@H]1O[C@@H]2O[C@H]3[C@H](O)[C@@H](O)[C@@H](O[C@H]4[C@H](O)[C@@H](O)[C@@H](O[C@H]5[C@H](O)[C@@H](O)[C@@H](O[C@H]6[C@H](O)[C@@H](O)[C@@H](O[C@H]7[C@H](O)[C@@H](O)[C@@H](O[C@H]1[C@H](O)[C@H]2O)O[C@@H]7CO)O[C@@H]6CO)O[C@@H]5CO)O[C@@H]4CO)O[C@@H]3CO [α-cyclodextrin] |  |  |  |  |  |  |  |  |  | lowest affinity |  | 
4 | C[C@@H]1C[C@H]2[C@@H]3CCC4=CC(=O)C=C[C@]4(C)[C@@]3(F)[C@@H](O)C[C@]2(C)[C@@]1(O)C(=O)CO [Dexamethasone, dexamethasone] |  | 297 | 1.4 | 4.6 | 16 | 17.7 | 6.4 | 1.9 |  |  |  | 
5 | CO[C@H]1C[C@@H]2CC[C@@H](C)[C@@](O)(O2)C(=O)C(=O)N2CCCC[C@H]2C(=O)O[C@H]([C@H](C)C[C@@H]2CC[C@@H](OP(C)(C)=O)[C@H](OC)C2)CC(=O)[C@H](C)/C=C(\C)[C@@H](O)[C@@H](OC)C(=O)[C@H](C)C[C@H](C)/C=C/C=C/C=C/1C [deforolimus, 42-(dimethylphosphinate)-rapamycin] |  |  |  |  |  |  |  |  |  |  | about 7 mg/mL | do not improve the chemical stability
6 | CO[C@H]1C[C@@H]2CC[C@@H](C)[C@@](O)(O2)C(=O)C(=O)N2CCCC[C@H]2C(=O)O[C@H]([C@H](C)C[C@@H]2CC[C@@H](OC(=O)C(C)(CO)CO)[C@H](OC)C2)CC(=O)[C@H](C)/C=C(\C)[C@@H](O)[C@@H](OC)C(=O)[C@H](C)C[C@H](C)/C=C/C=C/C=C/1C [Temsirolimus, 42-[3-hydroxy-2-(hydroxymethyl)-2-methylpropanoate]-rapamycin] |  |  |  |  |  |  |  |  |  |  | about 7 mg/mL | do not improve the chemical stability
7 | CCOC(=O)O[C@]1(C(=O)OCCl)CC[C@H]2[C@@H]3CCC4=CC(=O)C=C[C@]4(C)[C@H]3[C@@H](O)C[C@@]21C [Loteprednol etabonate, loteprednol etabonate] |  | 282 | 1.5 | 6.2 | 24 | 16.1 | 6.5 | 3.9 |  |  |  | 
